The source of these data is US20040156869A1, “2-substituted quinazolin-4-ylamine analogues” (Neurogen Corporation, priority 2002, published 2004).

In general, Ki refers to a dissociation constant, usually derived from enzyme kinetics or from competition with a known ligand.

human capsaicin receptor (VR1), sequence (Q8NER1 whole entry): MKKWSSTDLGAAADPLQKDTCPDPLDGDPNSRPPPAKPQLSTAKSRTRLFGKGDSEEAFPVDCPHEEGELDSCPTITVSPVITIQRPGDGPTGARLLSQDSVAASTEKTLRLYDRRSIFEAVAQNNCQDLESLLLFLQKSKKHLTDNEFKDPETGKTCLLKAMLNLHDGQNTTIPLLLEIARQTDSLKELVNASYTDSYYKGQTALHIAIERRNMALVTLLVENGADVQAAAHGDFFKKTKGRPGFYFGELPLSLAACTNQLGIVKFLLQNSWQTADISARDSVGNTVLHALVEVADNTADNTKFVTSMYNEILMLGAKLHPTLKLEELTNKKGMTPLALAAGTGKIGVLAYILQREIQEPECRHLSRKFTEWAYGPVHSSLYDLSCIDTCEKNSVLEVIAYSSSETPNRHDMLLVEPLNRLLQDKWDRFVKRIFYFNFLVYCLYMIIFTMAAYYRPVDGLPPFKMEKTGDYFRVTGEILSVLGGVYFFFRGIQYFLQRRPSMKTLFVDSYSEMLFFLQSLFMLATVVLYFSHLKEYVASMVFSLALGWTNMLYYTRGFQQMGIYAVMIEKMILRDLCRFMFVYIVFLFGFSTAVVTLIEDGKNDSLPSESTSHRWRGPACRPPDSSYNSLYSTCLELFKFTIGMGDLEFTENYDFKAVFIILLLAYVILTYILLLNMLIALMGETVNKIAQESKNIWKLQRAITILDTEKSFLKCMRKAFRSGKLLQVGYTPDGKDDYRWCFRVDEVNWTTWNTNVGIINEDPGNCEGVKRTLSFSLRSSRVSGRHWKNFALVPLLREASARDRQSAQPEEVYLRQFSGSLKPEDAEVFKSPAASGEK

This test concerns the target human capsaicin receptor (VR1) (Homo sapiens, UniProt Q8NER1). Nature of the test: Capsaicin receptor binding assay ([3H]RTX competition, VR1-transfected HEK293 membranes).
As for `CN1CCCC1CCNC(=O)c1nc(Nc2ccc(C(F)(F)F)cc2)c2ccc(-c3ncccc3C(F)(F)F)nc2n1` (stereo not shown) [Compound 440, 4-(4-Trifluoromethyl-phenylamino)-7-(3-trifluoromethyl-pyridin-2-yl)-pyrido[2,3-d]pyrimidine-2-carboxylic acid [2-(1-methyl-pyrrolidin-2-yl)-ethyl]-amide], the Ki was < 1000 nM.

On to `CCN(CC)CCCNC(=O)c1nc(Nc2ccc(C(F)(F)F)cc2)c2ccc(-c3ncccc3C(F)(F)F)nc2n1` [Compound 441, 4-(4-Trifluoromethyl-phenylamino)-7-(3-trifluoromethyl-pyridin-2-yl)-pyrido[2,3-d]pyrimidine-2-carboxylic acid (3-diethylamino-propyl)-amide], for which the Ki was < 1000 nM.

Take `O=C(NCCN1CCOCC1)c1nc(Nc2ccc(C(F)(F)F)cc2)c2ccc(-c3ncccc3C(F)(F)F)nc2n1` [Compound 442, 4-(4-Trifluoromethyl-phenylamino)-7-(3-trifluoromethyl-pyridin-2-yl)-pyrido[2,3-d]pyrimidine-2-carboxylic acid (2-morpholin-4-yl-ethyl)-amide]: the Ki was < 1000 nM.

`O=C(NCCCN1CCOCC1)c1nc(Nc2ccc(C(F)(F)F)cc2)c2ccc(-c3ncccc3C(F)(F)F)nc2n1` [Compound 443, 4-(4-Trifluoromethyl-phenylamino)-7-(3-trifluoromethyl-pyridin-2-yl)-pyrido[2,3-d]pyrimidine-2-carboxylic acid (3-morpholin-4-yl-propyl)-amide]: the Ki is < 1000 nM.

Take `CC(CN(C)C)NC(=O)c1nc(Nc2ccc(C(F)(F)F)cc2)c2ccc(-c3ncccc3C(F)(F)F)nc2n1` (stereo not shown) [Compound 444, 4-(4-Trifluoromethyl-phenylamino)-7-(3-trifluoromethyl-pyridin-2-yl)-pyrido[2,3-d]pyrimidine-2-carboxylic acid (2-dimethylamino-1-methyl-ethyl)-amide]: the Ki is < 1000 nM.

In the case of `CN1C2CCC1CC(NC(=O)c1nc(Nc3ccc(C(F)(F)F)cc3)c3ccc(-c4ncccc4C(F)(F)F)nc3n1)C2` (stereo not shown) [Compound 445, 4-(4-Trifluoromethyl-phenylamino)-7-(3-trifluoromethyl-pyridin-2-yl)-pyrido[2,3-d]pyrimidine-2-carboxylic acid (8-methyl-8-aza-bicyclo[3.2.1]oct-3-yl)-amide], the Ki is < 1000 nM.

For `CCN(CC)CCCC(C)NC(=O)c1nc(Nc2ccc(C(F)(F)F)cc2)c2ccc(-c3ncccc3C(F)(F)F)nc2n1` (stereo not shown) [Compound 446, 4-(4-Trifluoromethyl-phenylamino)-7-(3-trifluoromethyl-pyridin-2-yl)-pyrido[2,3-d]pyrimidine-2-carboxylic acid (4-diethylamino-1-methyl-butyl)-amide], the Ki is < 1000 nM.

In the case of `CN1C(C)(C)CC(NC(=O)c2nc(Nc3ccc(C(F)(F)F)cc3)c3ccc(-c4ncccc4C(F)(F)F)nc3n2)CC1(C)C` [Compound 447, 4-(4-Trifluoromethyl-phenylamino)-7-(3-trifluoromethyl-pyridin-2-yl)-pyrido[2,3-d]pyrimidine-2-carboxylic acid (1,2,2,6,6-pentamethyl-piperidin-4-yl)-amide], the Ki is < 1000 nM.

`CN1CCC(NC(=O)c2nc(Nc3ccc(C(F)(F)F)cc3)c3ccc(-c4ncccc4C(F)(F)F)nc3n2)CC1` [Compound 448, 4-(4-Trifluoromethyl-phenylamino)-7-(3-trifluoromethyl-pyridin-2-yl)-pyrido[2,3-d]pyrimidine-2-carboxylic acid (1-methyl-piperidin-4-yl)-amide]: the inhibitory constant (Ki) is < 1000 nM.

In the case of `CNC(=O)c1nc(Nc2ccc(C(F)(F)F)cc2)c2ccc(-c3ncccc3C(F)(F)F)nc2n1` [Compound 449, 4-(4-Trifluoromethyl-phenylamino)-7-(3-trifluoromethyl-pyridin-2-yl)-pyrido[2,3-d]pyrimidine-2-carboxylic acid methylamide], the Ki was < 1000 nM.

For `CCNC(=O)c1nc(Nc2ccc(C(F)(F)F)cc2)c2ccc(-c3ncccc3C(F)(F)F)nc2n1` [Compound 450, 4-(4-Trifluoromethyl-phenylamino)-7-(3-trifluoromethyl-pyridin-2-yl)-pyrido[2,3-d]pyrimidine-2-carboxylic acid ethylamide], the Ki is < 1000 nM.

In the case of `C=CCNC(=O)c1nc(Nc2ccc(C(F)(F)F)cc2)c2ccc(-c3ncccc3C(F)(F)F)nc2n1` [Compound 451, 4-(4-Trifluoromethyl-phenylamino)-7-(3-trifluoromethyl-pyridin-2-yl)-pyrido[2,3-d]pyrimidine-2-carboxylic acid allylamide], the Ki is < 1000 nM.

Consider `CCCNC(=O)c1nc(Nc2ccc(C(F)(F)F)cc2)c2ccc(-c3ncccc3C(F)(F)F)nc2n1` [Compound 452, 4-(4-Trifluoromethyl-phenylamino)-7-(3-trifluoromethyl-pyridin-2-yl)-pyrido[2,3-d]pyrimidine-2-carboxylic acid propylamide], for which the Ki was < 1000 nM.

`O=C(NCC1CC1)c1nc(Nc2ccc(C(F)(F)F)cc2)c2ccc(-c3ncccc3C(F)(F)F)nc2n1` [Compound 453, 4-(4-Trifluoromethyl-phenylamino)-7-(3-trifluoromethyl-pyridin-2-yl)-pyrido[2,3-d]pyrimidine-2-carboxylic acid cyclopropylmethyl-amide]: the Ki is < 1000 nM.

Consider `CCOCCNC(=O)c1nc(Nc2ccc(C(F)(F)F)cc2)c2ccc(-c3ncccc3C(F)(F)F)nc2n1` [Compound 454, 4-(4-Trifluoromethyl-phenylamino)-7-(3-trifluoromethyl-pyridin-2-yl)-pyrido[2,3-d]pyrimidine-2-carboxylic acid (2-ethoxy-ethyl)-amide], for which the Ki is < 1000 nM.

Consider `COCCNC(=O)c1nc(Nc2ccc(C(F)(F)F)cc2)c2ccc(-c3ncccc3C(F)(F)F)nc2n1` [Compound 455, 4-(4-Trifluoromethyl-phenylamino)-7-(3-trifluoromethyl-pyridin-2-yl)-pyrido[2,3-d]pyrimidine-2-carboxylic acid (2-methoxy-ethyl)-amide], for which the Ki was < 1000 nM.

In the case of `COCCCNC(=O)c1nc(Nc2ccc(C(F)(F)F)cc2)c2ccc(-c3ncccc3C(F)(F)F)nc2n1` [Compound 456, 4-(4-Trifluoromethyl-phenylamino)-7-(3-trifluoromethyl-pyridin-2-yl)-pyrido[2,3-d]pyrimidine-2-carboxylic acid (3-methoxy-propyl)-amide], the inhibition constant (Ki) was < 1000 nM.

As for `O=C(NCC1CCCO1)c1nc(Nc2ccc(C(F)(F)F)cc2)c2ccc(-c3ncccc3C(F)(F)F)nc2n1` (stereo not shown) [Compound 457, 4-(4-Trifluoromethyl-phenylamino)-7-(3-trifluoromethyl-pyridin-2-yl)-pyrido[2,3-d]pyrimidine-2-carboxylic acid (tetrahydro-furan-2-ylmethyl)-amide], the inhibitory constant (Ki) is < 1000 nM.

With `CC(C)(C)CNC(=O)c1nc(Nc2ccc(C(F)(F)F)cc2)c2ccc(-c3ncccc3C(F)(F)F)nc2n1` [Compound 458, 4-(4-Trifluoromethyl-phenylamino)-7-(3-trifluoromethyl-pyridin-2-yl)-pyrido[2,3-d]pyrimidine-2-carboxylic acid (2,2-dimethyl-propyl)-amide], the Ki is < 1000 nM.
